Results taken from patent publication US6841236B2, “Articles containing thioxanthone dyes” (3M Innovative Properties Co., priority 2001, dated 2005).

How the values were obtained:
[1] = Dye concentration in saturated acetone solution at room temperature; assay type: physicochemical; settings: 72 hours at RT, 0.45 micron PTFE filtered, absorbance at 535 nm
Method: Examples 4-7 were prepared by placing 60-100 mg of each of the compounds of Examples 1-3 and 6-methoxy-14H-anthra(2,1,9-mna)thioxanthene-14-one (described by Carlini et al.) in a vial with 5.0 ml acetone. […] Each vial was hand shaken and the solution was filtered using a 0.45 micron polytetrafluoroethylene (PTFE) filter commercially available from VWR Scientific Products, West Chester, Pa. under the trade designation “Acrodisc 13CR PTFE”.
The amount of fluorescent dye in the saturated acetone solution was determined by measuring the major dye absorption band at 535 nm using a UV-Vis Spectrophotometer commercially available from Shimadzu Scientific Instruments, Inc., Columbia, Md. under the trade designation “Shimadzu model UV-2401PC”. Dye concentrations were calculated by measuring the absorbance of the saturated acetone solution, and then diluting that solution until absorbance of the resulting solution was below 3. The dyes were assumed to have equal absorbance per mole. Using the dilution and an absorbance coefficient of 16,100 A/mol/L (coefficient obtained in acetone for the dye of Example 3) and assuming a Beer's Law relationship, the concentration of dye in each saturated solution was calculated and is set out in TABLE I

[2] = Daytime color of polycarbonate sheet with dye laminated to retroreflective sheeting (Labsphere BFC-450 Bispectral Colorimeter); assay type: physicochemical; settings: 0.2% dye in polycarbonate FCR-2407, 0.1 mm sheet on Scotchlite 3970; CIE D65, CIE 1931 observer
Method: Examples 8-10 were prepared with the compounds of Examples 1 and 2 and 6-methoxy-14H-anthra(2,1,9-mna)thioxanthene-14-one at a 0.2% loading in polycarbonate FCR-2407. Extrusion conditions for the polycarbonate were 260-304° C. using a single screw extruder. Optically transparent pressure sensitive adhesive with a liner on both sides of the adhesive was laminated to the 0.1 mm thick sheet of polycarbonate by removing one of the liners from the adhesive and then applying the exposed adhesive to the polycarbonate sheet with two passes of a roller using hand pressure.
The remaining liner was removed from the adhesive and the polycarbonate sheet construction was laminated to retroreflective sheeting commercially available from 3M under the trade designation “Scotchlite Diamond Grade LDP Reflective Sheeting Series 3970” (Scotchlite 3970) with two passes of a roller using hand pressure. The Scotchlite 3970 reflective sheeting had previously been laminated to a 7 cm wide by 28 cm long aluminum panel (6061T6 alloy with etch and desmut surface from Q Panel Company, Cleveland, Ohio) with two passes of a roller with hand pressure.
(§1) The daytime color of each article was measured using a Labsphere BFC-450 Bispectral Colorimeter commercially available from Labsphere, North Sutton, N.H. The daytime chromaticity (x,y), total luminance factor (YT), and fluorescence luminance factor (YF; which is a measure of the fluorescent properties of the article) calculated for the CIE D65 and the CIE 1931 observer are provided in TABLE II

[3] = Daytime color and visual inspection of PMMA film with dye laminated to retroreflective sheeting; assay type: physicochemical; settings: for visual inspection of film for undissolved dye: extruded PMMA CP923 film 0.1 mm, 6-methoxy dye at 1 wt.-%, dyes of Examples 1-2 at up to 1.27 wt-%
Method: as §1
Examples 11-16 were prepared with the compounds of Examples 1-2 and 6-methoxy-14H-anthra(2,1,9-mna)thioxanthene-14-one in polymethylmethacrylate (PMMA) resin at the wt.-% of dye shown in TABLE III. The samples were prepared by dry blending the dye with a medium impact modified grade PMMA resin commercially available from Ineos Acrylics Inc., Cordova, Tenn. under the trade designation “CP923”. Films of 0.1 mm thickness were extruded through a single screw extruder with three heating zones set at 249° C. to 260° C. […] Examples 11 and 12 and Examples 13 and 14 had equal molar loadings of dye.
The resultant films were laminated to Scotchlite 3970 reflective sheeting on aluminum panels as described in Examples 8-10. Color values were measured as described in Examples 8-10 and the results set out in TABLE III.

[4] = Daytime color of Paraloid B66 dye coating on retroreflective sheeting; assay type: physicochemical; settings: for YF (fluorescence luminance factor) / YT (total luminance factor) / x (daytime chromaticity) / y (daytime chromaticity): 0.10 parts dye in 64.8 parts Dowanol DPMA and 38.2 parts Paraloid B66, coated on Scotchlite 3970 with #16 wire wound bar, dried
Method: as §1
Examples 19-21 were prepared by independently stirring 0.10 parts of the dyes of Examples 1 and 3 and 6-methoxy-14H-anthra(2,1,9-mna)thioxanthene-14-one in a clear vehicle solution of 64.8 parts Dowanol DPMA and 38.2 parts Paraloid B66.
The fluorescent dye solutions were coated on Scotchlite 3970 reflective sheeting using a #16 wire wound bar. The coating was air dried for 5 minutes and then dried in a 120° C. oven for 45 minutes. Color values were measured as described in Examples 8-10 and the results set out in TABLE V.

[5] = Daytime color of polyurethane film with dye laminated to retroreflective sheeting; assay type: physicochemical; settings: dye 0.2 wt.-% in aliphatic polyester polyurethane PN03.214, 0.1 mm film on Scotchlite 3970
Method: as §1
Examples 24-27 were prepared as described in Examples 8-10, except that the dyes of Examples 1, 3, 6-(2-hydroxy-ethoxy)-14H-anthra(2,1,9-mna)thioxanthene-14-one (described by Carlini et al.) and 6-methoxy-14H-anthra(2,1,9-mna)thioxanthene-14-one were independently used at 0.2 wt.-% loading in an aliphatic polyester polyurethane resin commercially available from Huntsman Polyurethanes, West Deptford, N.J., USA under the trade designation “PN03.214”. The extrusion conditions for the polyurethane were 154-191° C. and the resultant film thickness was 0.1 mm.
The resultant films were laminated to Scotchlite 3970 reflective sheeting on aluminum panels as described in Examples 8-10. Color values were measured as described in Examples 8-10 and the results set out in TABLE VII.

[6] = Daytime color of vinyl film with dye laminated to retroreflective sheeting; assay type: physicochemical; settings: 0.18 g dye in 65 g GEON 178 / Elvacite 2013 mixture, 0.04 mm vinyl film on Scotchlite 3970
Method: as §1
Examples 22-23 were prepared by independently stirring 0.18 g of the dye of Examples 1 and 3 into 65 g of a mixture composed of 42 wt.-% DIBK, xylol, and mineral spirit (1.7:2.3:1), 44 wt.-% of a polyvinyl chloride dispersion commercially available from PolyOne, Cleveland, Ohio under the trade designation “GEON 178” and 14 wt.-% of a polyacrylate commercially available from Ineos Acrylics Inc., Cordova, Tenn. under the trade designation “Elvacite 2013”. Each mixture was allowed to stand at room temperature for one hour prior to knife coating onto a pre-sized paper substrate. Each coated substrate was placed in a 150° F. (66° C.) oven for 1.5 minutes, followed by a 300° F. (149° C.) oven for 1.0 minute and a 400° F. (204° C.) oven for 0.75 minute, resulting in a 0.04 mm thick fluorescent colored vinyl film.
The resultant films were laminated to Scotchlite 3970 reflective sheeting on aluminum panels as described in Examples 8-10. Color values were measured as described in Examples 8-10 and the results set out in TABLE VI.

[7] = Daytime color of copolyester film with dye laminated to retroreflective sheeting; assay type: physicochemical; settings: dye 0.2 wt.-% in copolyester resin, 0.1 mm film on Scotchlite 3970
Method: as §1
Examples 17-18 were prepared as described in Examples 8-10, except that the dyes of Examples 1 and 2 at a 0.2 wt.-% loading were independently incorporated into a copolyester resin. The copolyester resin was prepared using terephthalic and isophthalic acid in an 80/20 ratio and ethylene glycol in the conventional manner and analogous to the production of polyethylene terephthalate according to the method described in Macromolecular Syntheses, A Periodic Publication of Methods for the Preparation of Macromolecules, Collective Volume I, 1977, J. A. Moore, Editor, (John Wiley & Sons, New York; 1978);p. 17-21. The extrusion conditions for the copolyester were 254-260° C. using a single screw extruder and the resultant film thickness was 0.1 mm.
The resultant films were laminated to Scotchlite 3970 reflective sheeting on aluminum panels as described in Examples 8-10. Color values were measured as described in Examples 8-10 and the results set out in TABLE IV.

[8] = dye 0.3 wt-% in PMMA CP923, 0.1 mm film on Scotchlite 3970
[9] = dye 1.0 wt-% in PMMA CP923, 0.1 mm film on Scotchlite 3970
[10] = dye 0.2 wt-% in PMMA CP923, 0.1 mm film on Scotchlite 3970

| Compound | Dye Concentration in Acetone at RT [1] [mg/mL] | YF (fluorescence luminance factor) [2] | YT (total luminance factor) [2] | x (daytime chromaticity) [2] | y (daytime chromaticity) [2] | visual inspection of film for undissolved dye [3] | YF (fluorescence luminance factor) [4] | YT (total luminance factor) [4] | x (daytime chromaticity) [4] | y (daytime chromaticity) [4] | X (daytime chromaticity) [5] | YF (fluorescence luminance factor) [5] | YT (total luminance factor) [5] | y (daytime chromaticity) [5] | also measured |
| --- | --- | --- | --- | --- | --- | --- | --- | --- | --- | --- | --- | --- | --- | --- | --- |
| COc1cc2c3ccccc3c(=O)c3ccc4c5ccccc5sc1c4c32 [6-methoxy-14H-anthra(2,1,9-mna)thioxanthene-14-one, reference compound] | 0.06 | 16.15 | 28.24 | 0.6163 | 0.3025 | particles of dye in the film | 1.12 | 17.05 | 0.3977 | 0.3225 | 0.5989 | 9.69 | 14.81 | 0.2780 | X (daytime chromaticity) [3, 8]: 0.6072; YF (fluorescence luminance factor) [3, 8]: 11.64; YT (total luminance factor) [3, 8]: 17.02; y (daytime chromaticity) [3, 8]: 0.3117; X (daytime chromaticity) [3, 9]: 0.5723; YF (fluorescence luminance factor) [3, 9]: 3.67; YT (total luminance factor) [3, 9]: 5.28; y (daytime chromaticity) [3, 9]: 0.3064 |
| CC(C)CC(CC(C)C)Oc1cc2c3ccccc3c(=O)c3ccc4c5ccccc5sc1c4c32 [Example 3, 6-(1-Isobutyl-3-methylbutoxy)-14H-anthra[2,1,9-mna]thioxanthene-14-one] | 2.98 |  |  |  |  |  | 17.05 | 33.17 | 0.4971 | 0.3113 | 0.5970 | 11.62 | 17.66 | 0.2886 | appearance of coated article ([4]; dye in Paraloid B66 coating on Scotchlite 3970): bright fluorescent pink appearance; Y (daytime chromaticity) [6]: 0.2609; YF (fluorescence luminance factor) [6]: 12.92; YT (total luminance factor) [6]: 24.21; x (daytime chromaticity) [6]: 0.4952 |
| CCCCC(CC)COc1cc2c3ccccc3c(=O)c3ccc4c5ccccc5sc1c4c32 (stereo not shown) [Example 2, 6-[(2-Ethylhexyl)oxy]-14H-anthra[2,1,9-mna]thioxanthene-14-one] | 0.96 | 16.6 | 32.05 | 0.5336 | 0.2979 | uniform appearance with no undissolved dye seen |  |  |  |  |  |  |  |  | X (daytime chromaticity) [3, 10]: 0.6064; YF (fluorescence luminance factor) [3, 10]: 14.69; YT (total luminance factor) [3, 10]: 31.13; y (daytime chromaticity) [3, 10]: 0.3113; YF (fluorescence luminance factor) [7]: 12.77; YT (total luminance factor) [7]: 19.91; x (daytime chromaticity) [7]: 0.5627; y (daytime chromaticity) [7]: 0.2785; melting point: 175 to 177 °C |
| O=c1c2ccccc2c2cc(OCCO)c3sc4ccccc4c4ccc1c2c34 [6-(2-hydroxy-ethoxy)-14H-anthra(2,1,9-mna)thioxanthene-14-one, reference compound] |  |  |  |  |  |  |  |  |  |  | 0.6000 | 10.09 | 14.71 | 0.2756 |  |
